From patent US7666635B2, “Process for the preparation of amides” (priority 1997, dated 2010)
Read-outs that look alike come from different tables or passages of the source.

What was measured:
Rhodoccus GF674 = test: Tolerance of 3-cyanopyridine on the activity of resting cells; assay type: cell-based, Rhodococcus GF674; conditions: substrate concentration of 4% (w/v), resting cells 15 min at 20° C.
Protocol: (§1) In order to test the tolerance of 3-cyanopyridine, resting cells were incubated for 15 min at 20° C. at concentrations of 3-cyanopyridine between 1 and 10% (w/v) and the cells were then removed by centrifugation. After washing the cells with 0.85% NaCl, the remaining activity was measured.
(§2) The tolerance of 3-cyanopyridine as a substrate was tested at various substrate concentrations.

Rhodococcus GF376 = test: Substrate specificity of the Rhodococcus strains; assay type: cell-based
Protocol: (§3) Rhodococcus rhodochrous J1 was cultured for 72 h in the medium described in EP-A 0 307 926. The microorganisms Rhodoccus GF674, GF578, GF270 and GF376 were cultured in the following media at pH 7.0 for up to 96 h:
(§4) Rhodoccus GF674 in a medium comprising yeast extract 1.0 g/l, fructose 5.0 g/l, malt extract 10.0 g/l, acetamide 5.0 g/l, KH2PO4 2.0 g/l, MgSO47H2O 0.5 g/l and CoCl2.6H2O 10.0 mg. Rhodoccus GF578 in a medium containing yeast extract 1.0 g/l, fructose 15.0 g/l, malt extract 10.0 g/l, acetamide 25.0 g/l, KH2PO4 2.0 g/l, MgSO47H2O 0.5 g/l and CoCl2.6H2O 5.0 mg. […] Rhodoccus GF3 76 in a medium containing yeast extract 1.0 g/l, sodium citrate 10.0 g/l, malt extract 15.0 g/l, butyramide 7.5 g/l, KH2PO4 2.0 g/l, MgSO4.7H2O 0.5 g/l and CoCl2.6H2O 15.0 mg.
(§5) The substrate specificity is summarized as relative activity in Table 15.

Rhodococcus GF674 = test: Substrate specificity of the Rhodococcus strains; assay type: cell-based
Protocol: as §3, §4, §5

Rhodococcus GF270 = test: Substrate specificity of the Rhodococcus strains; assay type: cell-based
Protocol: as §3, §4, §5

Rhodococcus GF578 = test: Substrate specificity of the Rhodococcus strains; assay type: cell-based
Protocol: as §3, §4, §5

Rhodoccus GF270 = test: Tolerance of 3-cyanopyridine on the activity of resting cells; assay type: cell-based, Rhodococcus GF270; conditions: substrate concentration of 4% (w/v), resting cells 15 min at 20° C.
Protocol: as §1, §2

[1] = tested on: Purified enzyme from NA40 (nitrile hydratase); test: Activity for 3-cyanopyridine, purified enzyme; assay type: biochemical, Amycolatopsis NA40
Protocol: […] The reaction was stopped by addition of 0.2 ml of 3 N HCl. After centrifuging briefly, the nicotinamide formed was determined by means of HPLC (Shimadzu SPD 6A system using a C18 column (Develosil ODS-HG-5. […]); eluent: 10 mM KH2PO4/H3PO4 (pH 2.8)/acetonitrile 9:1 (v/v); flow rate: 1 ml/min; the absorption was measured at 230 nm). The specific activity was expressed as µmol of nicotinamide formed/ml/min/OD610 nm.
(§6) The reaction rates of aliphatic nitriles in the enrichment medium (Table 1) with isolated bacteria is summarized in Table 5, the effects of inducers and cofactors in the basal medium (Table 2) is summarized in Table 4 and the activity comparison of Amycolatopsis to Rhodoccus in the basal medium (Table 2) is summarized in Table 6.

[2] = target: T1, Purified enzyme from J1 (nitrile hydratase) (Rhodococcus rhodochrous, UniProt P21219+P21220); test: Activity for 3-cyanopyridine, purified enzyme; assay type: biochemical
T1 construct: host or cells: Rhodococcus rhodochrous J1 (native producer)

Rhodoccus rhodochrous J1 = test: Tolerance of 3-cyanopyridine on the activity of resting cells; assay type: cell-based, Rhodococcus rhodochrous J1; conditions: substrate concentration of 2% (w/v), resting cells 15 min at 20° C.
Protocol: as §1, §2

Rhodoccus GF578 = test: as above; assay type: cell-based, Rhodococcus GF578; conditions: up to a substrate concentration of 8%, resting cells 15 min at 20° C.
Protocol: as §1, §2

Rhodoccus GF376 = test: as above; assay type: cell-based, Rhodococcus GF376; conditions: substrate concentration of 10% (w/v), resting cells 15 min at 20° C.
Protocol: as §1, §2

[3] = tested on: Rhodococcus rhodochrous J1; test: Activity for 3-cyanopyridine, microorganism (comparison in basal medium); assay type: cell-based
Protocol: (§7) (1) For determination of the nitrile hydratase activity, a reaction mixture (2 ml) containing 3-cyanopyridine (1.0 M, 1.0 ml), potassium phosphate buffer (pH 7.0, 0.1 M, 0.5 ml) and 0.5 ml of cell suspension were incubated at 20° C. for 30 min with stirring. The reaction was stopped by addition of 0.2 ml of 3 N HCl. After centrifuging briefly, the nicotinamide formed was determined by means of HPLC (Shimadzu SPD 6A system using a C18 column (Develosil ODS-HG-5. […]); eluent: 10 mM KH2PO4/H3PO4 (pH 2.8)/acetonitrile 9:1 (v/v); flow rate: 1 ml/min; the absorption was measured at 230 nm). The specific activity was expressed as µmol of nicotinamide formed/ml/min/OD610 nm.
as §6

[4] = tested on: Amycolatopsis NA40 (DSMZ 11617); test: as above; assay type: cell-based
Protocol: as §7, §6

[5] = tested on: Rhodococcus rhodochrous J1; test: Substrate specificity of the Rhodococcus strains; assay type: cell-based
Protocol: as §3, §5

[6] = tested on: nitrile hydratase of NA40; test: Determination of the KM value (Lineweaver-Burk diagram); assay type: biochemical, Amycolatopsis NA40; conditions: substance as substrate; 20 ° C., 45 mM phosphate buffer, pH 7.0
Protocol: The KM value was determined to be 41.7 mM for 3-cyanopyridine and to be 3.7 mM for acrylonitrile by means of the Lineweaver-Burk diagram. […] This is one of the main advantages of NA40.

[7] = tested on: NA40 nitrile hydratase (resting NA40 cells); test: Substrate specificity of resting NA40 cells; assay type: cell-based, Amycolatopsis NA40
Protocol: (3) For determination of the activity of NA40 with respect to a number of substrates, cells having a dry weight of 0.0388 mg were incubated in the buffer described above. The reaction was started by addition of the appropriate substrate and incubated at 20° C. with shaking for 10 min. The reaction was stopped by addition of 0.2 ml of 2 N HCl and the reaction mixture was briefly centrifuged. The supernatant was analysed by means of HPLC or gas chromatography.

[8] = tested on: purified nitrile hydratase from NA40; test: Substrate specificity of the purified nitrile hydratase; assay type: biochemical, Amycolatopsis NA40
Protocol: The substrate specificity was determined analogously to Example 2 (1).
1.7 Units of enzyme were added to the reaction mixture (2.0 ml). The reaction mixture contained the respective substrate in 45 mM phosphate buffer (pH 7.0).

[9] = tested on: Actinomadura spadix E3733; test: Conversion rates of aliphatic nitriles using the isolated bacteria (enrichment medium); assay type: cell-based
Protocol: (§8) a) Various soil samples were inoculated with various nitriles or amides as a C and N source in the enrichment medium according to Table 1 and incubated at 37° C. or 45° C. for 7 10 days. The cultures were then transferred to the same medium and again cultured at 37° C. for 7 10 days. The whole process was repeated 3 times. The cultures were then diluted and plated out in order to obtain individual colonies. The plates were incubated at 37° C. for 5 days. The different colonies were then tested for the desired activity.
(§9) […] as a C and N source for Amycolatopsis NE31 (DSMZ 11616) Actinomadura spadix E3733 and Actinomadura spadix E3736, azelanitrile served as a C and N source for Amycolatopsis NA40 (DSMZ 11617) and Actinomadura spadix 45A32, n-octanenitrile served as a C and N source for Actinomadura spadix 4501 and cyanoacetic acid served as a C and N source for Actinomadura spadix C15.
as §7, §6

[10] = tested on: Amycolatopsis NE31 (DSMZ 11616); test: as above; assay type: cell-based
Protocol: as §8, §9, §7, §6

[11] = tested on: Actinomadura spadix E3736; test: as above; assay type: cell-based
Protocol: as §8, §9, §7, §6

[12] = tested on: Amycolatopsis NA40 (DSMZ 11617); test: as above; assay type: cell-based
Protocol: as §8, §9, §7, §6

[13] = tested on: Actinomadura spadix 45A32; test: as above; assay type: cell-based
Protocol: as §8, §9, §7, §6

Actinomadura spadix C15 = test: as above; assay type: cell-based
Protocol: as §8, §9, §7, §6

[14] = tested on: purified nitrile hydratase from NA40; test: Substrate specificity of the purified nitrile hydratase; assay type: biochemical, Amycolatopsis NA40; conditions: pH 7
[15] = Rhodococcus GF376, 3-cyanopyridine = 100
[16] = Rhodococcus GF674, 3-cyanopyridine = 100
[17] = Rhodococcus GF270, 3-cyanopyridine = 100
[18] = Rhodococcus GF578, 3-cyanopyridine = 100
[19] = Rhodococcus rhodochrous J1, 3-cyanopyridine = 100
[20] = resting NA40 cells, 20° C., 10 min, 3-cyanopyridine = 100, substrate concentration per Table 8
[21] = purified enzyme, 3-cyanopyridine = 100

T1 sequence (P21219 2-203 limits assumed): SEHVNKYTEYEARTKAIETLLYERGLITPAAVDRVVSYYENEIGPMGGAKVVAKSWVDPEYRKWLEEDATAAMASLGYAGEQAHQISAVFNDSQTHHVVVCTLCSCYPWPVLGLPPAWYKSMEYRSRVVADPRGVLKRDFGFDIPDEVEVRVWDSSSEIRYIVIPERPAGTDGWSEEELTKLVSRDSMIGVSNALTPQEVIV
T1 sequence (P21220 whole entry): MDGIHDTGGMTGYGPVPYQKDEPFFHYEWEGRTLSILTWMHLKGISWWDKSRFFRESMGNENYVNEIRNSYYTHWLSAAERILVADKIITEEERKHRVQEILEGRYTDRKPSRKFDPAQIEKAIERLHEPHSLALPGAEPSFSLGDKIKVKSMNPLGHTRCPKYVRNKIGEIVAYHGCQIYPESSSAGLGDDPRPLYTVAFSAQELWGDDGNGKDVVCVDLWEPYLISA

SMILES: N#Cc1cccnc1 [3-Cyanopyridine]
- nitrile hydratase activity decreased by the factor (Rhodoccus GF674): 1.4
- relative activity (substrate specificity) (Rhodococcus GF376; [15]): 100%
- relative activity (substrate specificity) (Rhodococcus GF674; [16]): 100%
- relative activity (substrate specificity) (Rhodococcus GF270; [17]): 100%
- relative activity (substrate specificity) (Rhodococcus GF578; [18]): 100%
- nitrile hydratase activity decreased by the factor (Rhodoccus GF270): 1.17
- Activity for 3-cyanopyridine [1]: 1110 μmol/min/mg protein
- Activity for 3-cyanopyridine [2]: 371 μmol/min/mg protein
- nitrile hydratase activity decreased by the factor (Rhodoccus rhodochrous J1): 1.4
- nitrile hydratase activity (Rhodoccus GF578): remained nearly constant
- nitrile hydratase activity decreased by the factor (Rhodoccus GF376): 1.25
- Activity for 3-cyanopyridine [3]: 314
- Activity for 3-cyanopyridine [4]: 303 µmol/mL/min
- relative activity (substrate specificity) [5, 19]: 100%
- Km [6]: 41.7 mM
- Relative activity [7, 20]: 100%
- Relative activity, Enzyme reaction [8, 21]: 100%

SMILES: C=CC#N [Acrylonitrile]
- relative activity (substrate specificity) (Rhodococcus GF376; [15]): 257%
- relative activity (substrate specificity) (Rhodococcus GF674; [16]): 147%
- relative activity (substrate specificity) (Rhodococcus GF270; [17]): 192%
- relative activity (substrate specificity) (Rhodococcus GF578; [18]): 101%
- relative activity (substrate specificity) [5, 19]: 478%
- Km [6]: 3.7 mM
- Relative activity [7, 20]: 115%
- Relative activity, Enzyme reaction [8, 21]: 94%

SMILES: N#CCCCCC#N [Adiponitrile]
- Specific activity ([9]; strain E3733): 0.214 μmol/ml/min/OD
- Total activity ([9]; strain E3733): 0.347 µmol/mL/min
- Growth (OD610 nm) ([9]; strain E3733, nitrile as substrate in enrichment medium): 1.62 OD610 nm
- Specific activity ([10]; strain NE31): 0.141 μmol/ml/min/OD
- Total activity ([10]; strain NE31): 0.377 µmol/mL/min
- Growth (OD610 nm) ([10]; strain NE31, nitrile as substrate in enrichment medium): 2.68 OD610 nm
- Specific activity ([11]; strain E3736): 2.21 μmol/ml/min/OD
- Total activity ([11]; strain E3736): 3.00 µmol/mL/min
- Growth (OD610 nm) ([11]; strain E3736, nitrile as substrate in enrichment medium): 1.36 OD610 nm

SMILES: N#CCCCCCCCC#N [Azelanitrile]
- Specific activity ([12]; strain NA40): 5.57 μmol/ml/min/OD
- Total activity ([12]; strain NA40): 33.0 µmol/mL/min
- Growth (OD610 nm) ([12]; strain NA40, nitrile as substrate in enrichment medium): 5.92 OD610 nm
- Specific activity ([13]; strain 45A32): 3.23 μmol/ml/min/OD
- Total activity ([13]; strain 45A32): 18.8 µmol/mL/min
- Growth (OD610 nm) ([13]; strain 45A32, nitrile as substrate in enrichment medium): 5.81 OD610 nm

SMILES: N#CCC(=O)O [Cyanoacetic acid]
- Specific activity (Actinomadura spadix C15; strain C15): 3.43 μmol/ml/min/OD
- Total activity (Actinomadura spadix C15; strain C15): 7.01 µmol/mL/min
- Growth (OD610 nm) (Actinomadura spadix C15; strain C15, substrate in enrichment medium): 2.04 OD610 nm

SMILES: N#Cc1ccc(Cl)cc1 [p-Chlorobenzonitrile]
- relative activity (substrate specificity) (Rhodococcus GF376): 0%
- relative activity (substrate specificity) (Rhodococcus GF674): 0%
- relative activity (substrate specificity) (Rhodococcus GF270): 0%
- relative activity (substrate specificity) (Rhodococcus GF578): 0%
- Total activity [14]: 2.30 µmol/mL/min
- relative activity (substrate specificity) [5]: 13%
- Relative activity [7]: 16%
- Relative activity, Enzyme reaction [8]: 13%
